# Measurements taken from ChEMBL document CHEMBL4261526 (Medchemcomm, 2017).
# How the values were obtained:
# in vitro [1] = conditions: human, HepG2 cells
# Description: Cytotoxicity against human HepG2 cells assessed as cell viability at 10 uM by MTT assay relative to control
# in vitro [2] = conditions: human, HepG2 cells; remark: listed apart in the source
# Description: Cytotoxicity against human HepG2 cells assessed as cell viability at 300 uM by MTT assay relative to control
# Acetylcholinesterase [3] = biological target: T1, Acetylcholinesterase (Homo sapiens, UniProt P22303); assay: Inhibition of recombinant human AChE using acetylthiocholine iodide as substrate preincubated for 20 mins followed by substrate addition and measured for 5 mins by Ellman's assay
# Cholinesterase [4] = biological target: T2, Cholinesterase (Homo sapiens, UniProt P06276); assay: Inhibition of human serum BuChE using butyrylthiocholine iodide as substrate preincubated for 20 mins followed by substrate addition and measured for 5 mins by Ellman's assay
# in vitro [5] = conditions: human, HepG2 cells; remark: listed apart in the source
# Description: Cytotoxicity against human HepG2 cells assessed as cell viability at 1 uM by MTT assay relative to control
# in vitro [6] = conditions: human, HepG2 cells; remark: listed apart in the source
# Description: Cytotoxicity against human HepG2 cells assessed as cell viability at 100 uM by MTT assay relative to control
# Cholinesterase [7] = biological target: T2, Cholinesterase; assay: Potency index, ratio of tacrine IC50 to test compound IC50 for human serum BuChE
# Acetylcholinesterase [8] = biological target: T1, Acetylcholinesterase; assay: Potency index, ratio of tacrine IC50 to test compound IC50 for recombinant human AChE
# Cholinesterase [9] = biological target: T2, Cholinesterase; assay: Inhibition of recombinant human BuChE using butyrylthiocholine as substrate preincubated for 30 mins followed by substrate addition and measured for 20 mins by Ellman's assay
# Homo sapiens = species: Homo sapiens; assay: Selectivity ratio of IC50 for recombinant human BuChE to IC50 for recombinant human AChE
# Acetylcholinesterase [10] = biological target: T1, Acetylcholinesterase; assay: Inhibition of recombinant human AChE using acetylthiocholine iodide as substrate preincubated for 30 mins followed by substrate addition and measured for 20 mins by Ellman's assay
# T2 sequence (P06276 whole entry): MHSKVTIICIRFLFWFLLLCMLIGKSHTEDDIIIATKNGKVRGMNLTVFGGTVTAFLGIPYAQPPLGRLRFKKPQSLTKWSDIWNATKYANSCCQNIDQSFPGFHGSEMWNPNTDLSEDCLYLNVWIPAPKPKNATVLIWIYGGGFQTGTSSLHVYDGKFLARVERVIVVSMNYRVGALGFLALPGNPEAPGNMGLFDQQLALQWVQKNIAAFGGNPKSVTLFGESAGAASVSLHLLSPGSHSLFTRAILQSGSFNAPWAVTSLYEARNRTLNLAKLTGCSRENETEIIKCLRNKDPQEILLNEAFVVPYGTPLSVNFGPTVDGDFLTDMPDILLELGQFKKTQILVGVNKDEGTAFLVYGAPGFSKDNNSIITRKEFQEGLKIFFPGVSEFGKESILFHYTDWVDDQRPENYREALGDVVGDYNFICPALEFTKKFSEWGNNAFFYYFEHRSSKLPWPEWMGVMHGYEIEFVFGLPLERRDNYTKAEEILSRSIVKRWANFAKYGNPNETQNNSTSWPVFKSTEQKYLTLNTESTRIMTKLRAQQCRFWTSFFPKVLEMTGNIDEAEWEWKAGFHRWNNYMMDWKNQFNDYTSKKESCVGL
# T1 sequence (P22303 whole entry): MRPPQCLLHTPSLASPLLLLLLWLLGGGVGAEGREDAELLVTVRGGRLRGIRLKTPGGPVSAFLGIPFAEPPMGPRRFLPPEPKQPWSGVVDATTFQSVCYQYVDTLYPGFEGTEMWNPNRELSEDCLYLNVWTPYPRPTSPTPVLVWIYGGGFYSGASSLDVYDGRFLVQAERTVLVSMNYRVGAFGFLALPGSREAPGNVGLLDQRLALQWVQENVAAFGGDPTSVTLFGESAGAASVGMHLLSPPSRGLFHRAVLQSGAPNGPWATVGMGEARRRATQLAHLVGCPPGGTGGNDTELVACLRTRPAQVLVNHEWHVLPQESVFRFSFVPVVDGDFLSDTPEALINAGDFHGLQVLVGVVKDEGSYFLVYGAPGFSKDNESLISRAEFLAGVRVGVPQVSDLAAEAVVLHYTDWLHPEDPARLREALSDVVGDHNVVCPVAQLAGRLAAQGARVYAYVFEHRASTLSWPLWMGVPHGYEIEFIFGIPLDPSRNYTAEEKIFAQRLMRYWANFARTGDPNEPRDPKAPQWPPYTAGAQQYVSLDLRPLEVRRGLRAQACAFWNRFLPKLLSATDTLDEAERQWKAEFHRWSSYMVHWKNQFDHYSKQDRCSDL
SMILES,viability at 10 µM (in vitro [1]),viability at 300 µM (in vitro [2]),IC50 (Acetylcholinesterase [3]),IC50 (Cholinesterase [4]),viability at 1 µM (in vitro [5]),viability at 100 µM (in vitro [6]),Ratio IC50 (Cholinesterase [7]),Ratio IC50 (Acetylcholinesterase [8]),IC50 (Cholinesterase [9]),Ratio IC50 (Homo sapiens),IC50 (Acetylcholinesterase [10])
Cn1c2nc3ccccc3c-2c(NCCCCCCNc2c3c(nc4ccccc24)CCCC3)c2ccccc21,34.9%,36.5%,1.25 nM,9 nM,40.9%,36.2%,,,,,
Cn1c2nc3ccccc3c-2c(NCCCCCCCCNc2c3c(nc4ccccc24)CCCC3)c2ccccc21,41.4%,37.9%,0.95 nM,2.29 nM,78.1%,38.4%,17.4,368,,,
Nc1c2c(nc3cc(Cl)ccc13)C[C@H]1C=C(CCCCn3cc(CO)nn3)C[C@H]2C1,,,,,,,,,210 nM,488,0.43 nM
Cn1c2nc3ccccc3c-2c(NCCCCNc2c3c(nc4ccccc24)CCCC3)c2ccccc21,37.2%,34.8%,53 nM,21.8 nM,99.5%,33.8%,,,,,
